{"source": "patent US20040063806A1", "about": "“Antimicrobial polyalphaolefin composition” (priority 2000, published 2004)", "origin": "cited, not measured here", "key": {"Enterobacter cloacae": {"system": "Enterobacter cloacae", "conditions": "Enterobacter cloacae ATCC 13047, medium M-H"}, "Loefferella pseudomallei": {"system": "Loefferella pseudomallei", "conditions": "Loefferella pseudomallei NCIB 10230, medium NA"}, "Enterobacter sakazakii": {"system": "Enterobacter sakazakii", "conditions": "Enterobacter sakazakii NCTC 8155, medium NA"}, "Micrococcus luteus": {"system": "Micrococcus luteus", "conditions": "Micrococcus luteus ATCC 7468, medium M-H"}, "Aspergillus fumigatus": {"system": "Aspergillus fumigatus", "conditions": "Aspergillus fumigatus ATCC 9197, medium SMA"}, "Staphylococcus hyicus": {"system": "Staphylococcus hyicus", "conditions": "Staphylococcus hyicus NCTC 7944, medium BHI-A"}, "Candida stellatoidae": {"system": "Candida stellatoidae", "conditions": "origin A, medium SMA"}, "[1]": {"system": "Streptococcus saprophyticus", "conditions": "Streptococcus saprophyticus ATCC 15305, medium M-H"}, "Actinomyces naeslundii": {"system": "Actinomyces naeslundii", "conditions": "origin A, medium NA"}, "Aspergillus niger": {"system": "Aspergillus niger", "conditions": "Aspergillus niger ATCC 6275, medium M"}, "Actinomyces bovis": {"system": "Actinomyces bovis", "conditions": "origin A, medium NA"}, "Streptococcus pyogenes": {"system": "Streptococcus pyogenes", "conditions": "Streptococcus pyogenes ATCC 21059, medium M-H"}, "[2]": {"system": "Pseudomonas fluorescencens", "conditions": "Pseudomonas fluorescencens NCTC 4755, medium NA"}, "Moraxella glucidolytica": {"system": "Moraxella glucidolytica", "conditions": "origin A, medium NA"}, "Staphylococcus hominis": {"system": "Staphylococcus hominis", "conditions": "Staphylococcus hominis ATCC 27844, medium M-H"}}, "note": "Where two headings read alike, the source gives them in different places.", "data": [{"smiles": "Oc1cc(Cl)ccc1Oc1ccc(Cl)cc1Cl", "note": "[IRGAGUARD B 1000, 2,4,4′-trichloro-2′-hydroxydiphenyl ether]", "values": [{"measurement": "Microbiostatic effect", "setting": "Enterobacter cloacae", "value": 0.5, "unit": "ppm"}, {"measurement": "Microbiostatic effect", "setting": "Loefferella pseudomallei", "value": 1.0, "unit": "ppm"}, {"measurement": "Microbiostatic effect", "setting": "Enterobacter sakazakii", "value": 0.3, "unit": "ppm"}, {"measurement": "Microbiostatic effect", "setting": "Micrococcus luteus", "value": 4.0, "unit": "ppm"}, {"measurement": "Microbiostatic effect", "setting": "Aspergillus fumigatus", "value": 10, "unit": "ppm"}, {"measurement": "Microbiostatic effect", "setting": "Staphylococcus hyicus", "value": 0.03, "unit": "ppm"}, {"measurement": "Microbiostatic effect", "setting": "Candida stellatoidae", "value": 10, "unit": "ppm"}, {"measurement": "Microbiostatic effect", "setting": "Staphylococcus aureus; Staphylococcus aureus ATCC 6538, medium NA", "value": 0.01, "unit": "ppm"}, {"measurement": "Microbiostatic effect", "setting": "Staphylococcus aureus; Staphylococcus aureus ATCC 9144, medium M-H", "value": 0.05, "unit": "ppm"}, {"measurement": "Microbiostatic effect", "setting": "Staphylococcus aureus; Staphylococcus aureus ATCC 13709, medium NA", "value": 0.01, "unit": "ppm"}, {"measurement": "Microbiostatic effect", "setting": "Staphylococcus aureus; Staphylococcus aureus ATCC 29213, medium M-H", "value": "<0.125", "unit": "ppm"}, {"measurement": "Microbiostatic effect", "setting": "Staphylococcus aureus; Staphylococcus aureus NCTC 6571, medium NA", "value": 0.03, "unit": "ppm"}, {"measurement": "Microbiostatic effect", "setting": "Staphylococcus aureus; Staphylococcus aureus NCTC 6966, medium NA", "value": 0.1, "unit": "ppm"}, {"measurement": "Microbiostatic effect", "setting": "Staphylococcus aureus; Staphylococcus aureus NCTC 10443, medium M-H, Methicillin resistant", "value": 0.01, "unit": "ppm"}, {"measurement": "Microbiostatic effect", "setting": "Staphylococcus aureus; Staphylococcus aureus NCTC 10703, medium M-H, Methicillin resistant", "value": 0.01, "unit": "ppm"}, {"measurement": "Microbiostatic effect", "setting": "Staphylococcus aureus; Staphylococcus aureus NCTC 11150, medium M-H, Methicillin resistant", "value": 0.02, "unit": "ppm"}, {"measurement": "Microbiostatic effect", "setting": "Staphylococcus aureus; Staphylococcus aureus NCTC 11940, medium M-H, Methicillin resistant", "value": 0.01, "unit": "ppm"}, {"measurement": "Microbiostatic effect", "setting": "Staphylococcus aureus; Staphylococcus aureus NCTC 12232, medium M-H, Methicillin resistant", "value": 0.01, "unit": "ppm"}, {"measurement": "Microbiostatic effect", "setting": "Staphylococcus aureus; Staphylococcus aureus NCTC 12493, medium M-H, Methicillin resistant", "value": 0.01, "unit": "ppm"}, {"measurement": "Microbiostatic effect", "setting": "Staphylococcus aureus; Staphylococcus aureus NCTC 12497, medium M-H, Methicillin resistant", "value": 0.01, "unit": "ppm"}, {"measurement": "Microbiostatic effect", "setting": "[1]", "value": 0.125, "unit": "ppm"}, {"measurement": "Microbiostatic effect", "setting": "Actinomyces naeslundii", "value": 1.0, "unit": "ppm"}, {"measurement": "Microbiostatic effect", "setting": "Aspergillus niger", "value": 30, "unit": "ppm"}, {"measurement": "Microbiostatic effect", "setting": "Proteus vulgaris; Proteus vulgaris NCTC 4636, medium NA", "value": 0.3, "unit": "ppm"}, {"measurement": "Microbiostatic effect", "setting": "Proteus vulgaris; Proteus vulgaris NCTC 8313, medium NA", "value": 0.1, "unit": "ppm"}, {"measurement": "Microbiostatic effect", "setting": "Actinomyces bovis", "value": 1.0, "unit": "ppm"}, {"measurement": "Microbiostatic effect", "setting": "Streptococcus pyogenes", "value": 4.0, "unit": "ppm"}, {"measurement": "Microbiostatic effect", "setting": "[2]", "value": ">100", "unit": "ppm"}, {"measurement": "Microbiostatic effect", "setting": "Moraxella glucidolytica", "value": 0.3, "unit": "ppm"}, {"measurement": "Microbiostatic effect", "setting": "Staphylococcus hominis", "value": 1.0, "unit": "ppm"}]}]}
